In paper PMC6684654 (Nature Communications, 2019):
In brackets after ≈: the same amount, converted by molar mass. Blank lines part the entries; values can stand above or below the molecule they belong to.

Key:
E. coli ATCC25922 = test: Antibiotic susceptibility (MIC), automated identification system; assay type: cell-based; details: Supplementary Table 1; for MIC: Escherichia coli, ATCC25922
Description: (§1) Clinical isolate strains were identified and screened by the Phoenix 100 automated bacterial identification system to rapidly detect antimicrobial resistance. Total DNA was extracted by the TIANamp Bacteria DNA Kit according to the manufacturer’s protocol. The presence of blaNDM-1 was confirmed using a diagnostic kit for NDM-1 (Puruikang Bio Inc., Shenzhen, China) based on fluorescent quantitative polymerase chain reaction assay. According to the instruction, Ct values of less than 37 were considered positive.

NDM-1 E. coli XJ141026 = test: as above; assay type: cell-based; details: Supplementary Table 1; for MIC: Escherichia coli
Description: as §1

NDM-1 E. coli XJ141047 = test: as above; assay type: cell-based; details: Supplementary Table 1; for MIC: Escherichia coli
Description: as §1

[1] = tested on: NDM-1 K. pneumoniae XJ155020; test: as above; assay type: cell-based; details: Supplementary Table 2; for MIC: Klebsiella pneumoniae
Description: as §1

NDM-1 E. coli XJ141015 = test: as above; assay type: cell-based; details: Supplementary Table 1; for MIC: Escherichia coli
Description: as §1

K. pneumoniae ATCC13883 = test: as above; assay type: cell-based; details: Supplementary Table 2; for MIC: Klebsiella pneumoniae, ATCC13883
Description: as §1

[2] = tested on: NDM-1 K. pneumoniae XJ155019; test: as above; assay type: cell-based; details: Supplementary Table 2; for MIC: Klebsiella pneumoniae
Description: as §1

[3] = tested on: NDM-1 K. pneumoniae XJ155017; test: as above; assay type: cell-based; details: Supplementary Table 2; for MIC: Klebsiella pneumoniae
Description: as §1

[4] = tested on: NDM-1 K. pneumoniae XJ155018; test: as above; assay type: cell-based; details: Supplementary Table 2; for MIC: Klebsiella pneumoniae
Description: as §1

NDM-1 = NDM-1 (Klebsiella pneumoniae, UniProt C7C422); test: Zn2+ restoration assay; assay type: biochemical
Procedure: After incubating for 20 min at 30 °C, 50 μL of the mixture was added to the 96-well plate. […] The absorbance at 300 nm was monitored for 30 min at 30 °C. Percent residual activity was calculated from the thanatin-free control.

Sequence of NDM-1 (C7C422 20-270, looked up, natural form): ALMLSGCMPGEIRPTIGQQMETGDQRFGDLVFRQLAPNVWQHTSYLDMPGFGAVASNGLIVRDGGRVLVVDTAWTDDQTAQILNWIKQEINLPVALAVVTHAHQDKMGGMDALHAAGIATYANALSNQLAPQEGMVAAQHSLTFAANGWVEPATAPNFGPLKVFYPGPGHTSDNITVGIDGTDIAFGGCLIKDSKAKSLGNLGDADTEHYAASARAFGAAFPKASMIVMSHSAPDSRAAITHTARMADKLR

SMILES: O=S(=O)([O-])[O-].[Zn+2] [ZnSO4]
- NDM-1 residual activity % (NDM-1; ZnSO4 0.1 μM, replicate 1): 15.22%
- NDM-1 residual activity % (NDM-1; ZnSO4 0.1 μM, replicate 2): 16.97%
- NDM-1 residual activity % (NDM-1; ZnSO4 0.1 μM, replicate 3): 15.04%
- NDM-1 residual activity % (NDM-1; ZnSO4 1 μM, replicate 1): 27.47%
- NDM-1 residual activity % (NDM-1; ZnSO4 1 μM, replicate 2): 23.22%
- NDM-1 residual activity % (NDM-1; ZnSO4 1 μM, replicate 3): 15.46%
- NDM-1 residual activity % (NDM-1; ZnSO4 5 μM, replicate 1): 28.32%
- NDM-1 residual activity % (NDM-1; ZnSO4 5 μM, replicate 2): 25.17%
- NDM-1 residual activity % (NDM-1; ZnSO4 5 μM, replicate 3): 26.96%
- NDM-1 residual activity % (NDM-1; ZnSO4 10 μM, replicate 1): 32.34%
- NDM-1 residual activity % (NDM-1; ZnSO4 10 μM, replicate 2): 29.63%
- NDM-1 residual activity % (NDM-1; ZnSO4 10 μM, replicate 3): 36.06%
- NDM-1 residual activity % (NDM-1; ZnSO4 50 μM, replicate 1): 43.28%
- NDM-1 residual activity % (NDM-1; ZnSO4 50 μM, replicate 2): 51.47%
- NDM-1 residual activity % (NDM-1; ZnSO4 50 μM, replicate 3): 61.34%
- NDM-1 residual activity % (NDM-1; ZnSO4 100 μM, replicate 1): 56.06%
- NDM-1 residual activity % (NDM-1; ZnSO4 100 μM, replicate 2): 59.92%
- NDM-1 residual activity % (NDM-1; ZnSO4 100 μM, replicate 3): 88.19%
- NDM-1 residual activity % (NDM-1; ZnSO4 200 μM, replicate 1): 61.18%
- NDM-1 residual activity % (NDM-1; ZnSO4 200 μM, replicate 2): 100.32%
- NDM-1 residual activity % (NDM-1; ZnSO4 200 μM, replicate 3): 93.90%
- NDM-1 residual activity % (NDM-1; ZnSO4 400 μM, replicate 1): 95.69%
- NDM-1 residual activity % (NDM-1; ZnSO4 400 μM, replicate 2): 105.75%
- NDM-1 residual activity % (NDM-1; ZnSO4 400 μM, replicate 3): 98.26%
- NDM-1 residual activity % (NDM-1; ZnSO4 800 μM, replicate 1): 94.91%
- NDM-1 residual activity % (NDM-1; ZnSO4 800 μM, replicate 2): 111.23%
- NDM-1 residual activity % (NDM-1; ZnSO4 800 μM, replicate 3): 106.26%

SMILES: O=C(N[C@H](CO)[C@H](O)c1ccc([N+](=O)[O-])cc1)C(Cl)Cl [Chloramphenicol]
- MIC (E. coli ATCC25922): ≤ 4 µg/mL
- susceptibility class (MIC) (E. coli ATCC25922): S
- MIC (NDM-1 E. coli XJ141026): ≤ 4 µg/mL
- susceptibility class (MIC) (NDM-1 E. coli XJ141026): S
- MIC (NDM-1 E. coli XJ141047): ≤ 4 µg/mL
- susceptibility class (MIC) (NDM-1 E. coli XJ141047): S
- MIC [1]: > 16 µg/mL
- susceptibility class (MIC) [1]: R
- MIC (NDM-1 E. coli XJ141015): > 16 µg/mL
- susceptibility class (MIC) (NDM-1 E. coli XJ141015): R
- MIC (K. pneumoniae ATCC13883): ≤ 4 µg/mL
- susceptibility class (MIC) (K. pneumoniae ATCC13883): S
- MIC [2]: > 16 µg/mL
- susceptibility class (MIC) [2]: R
- MIC [3]: > 16 µg/mL
- susceptibility class (MIC) [3]: R
- MIC [4]: > 16 µg/mL
- susceptibility class (MIC) [4]: R

SMILES: CN(C)[C@@H]1C(O)=C(C(N)=O)C(=O)[C@@]2(O)C(O)=C3C(=O)c4c(O)cccc4[C@@](C)(O)[C@H]3C[C@@H]12 [Tetracycline]
- MIC (E. coli ATCC25922): ≤ 2 µg/mL
- susceptibility class (MIC) (E. coli ATCC25922): S
- MIC (NDM-1 E. coli XJ141026): > 8 µg/mL
- susceptibility class (MIC) (NDM-1 E. coli XJ141026): R
- MIC (NDM-1 E. coli XJ141047): ≤ 2 µg/mL
- susceptibility class (MIC) (NDM-1 E. coli XJ141047): S
- MIC [1]: > 8 µg/mL
- susceptibility class (MIC) [1]: R
- MIC (NDM-1 E. coli XJ141015): ≤ 2 µg/mL
- susceptibility class (MIC) (NDM-1 E. coli XJ141015): S
- MIC (K. pneumoniae ATCC13883): ≤ 2 µg/mL
- susceptibility class (MIC) (K. pneumoniae ATCC13883): S
- MIC [2]: > 8 µg/mL
- susceptibility class (MIC) [2]: R
- MIC [3]: 4 µg/mL (≈ 9 µM)
- susceptibility class (MIC) [3]: S
- MIC [4]: > 8 µg/mL
- susceptibility class (MIC) [4]: R

Second part, the molecule after the results:

- MIC (E. coli ATCC25922): ≤ 2 µg/mL
- susceptibility class (MIC) (E. coli ATCC25922): S
- MIC (NDM-1 E. coli XJ141026): > 16 µg/mL
- susceptibility class (MIC) (NDM-1 E. coli XJ141026): R
- MIC (NDM-1 E. coli XJ141047): > 16 µg/mL
- susceptibility class (MIC) (NDM-1 E. coli XJ141047): R
- MIC [1]: > 16 µg/mL
- susceptibility class (MIC) [1]: R
- MIC (NDM-1 E. coli XJ141015): > 16 µg/mL
- susceptibility class (MIC) (NDM-1 E. coli XJ141015): R
- MIC (K. pneumoniae ATCC13883): ≤ 2 µg/mL
- susceptibility class (MIC) (K. pneumoniae ATCC13883): S
- MIC [2]: > 16 µg/mL
- susceptibility class (MIC) [2]: R
- MIC [3]: > 16 µg/mL
- susceptibility class (MIC) [3]: R
- MIC [4]: > 16 µg/mL
- susceptibility class (MIC) [4]: R
SMILES: C[C@H]1[C@H](NC(=O)/C(=N\OC(C)(C)C(=O)O)c2csc(N)n2)C(=O)N1S(=O)(=O)O [Aztreonam]

- MIC (E. coli ATCC25922): ≤ 4 µg/mL
- susceptibility class (MIC) (E. coli ATCC25922): S
- MIC (NDM-1 E. coli XJ141026): > 16 µg/mL
- susceptibility class (MIC) (NDM-1 E. coli XJ141026): R
- MIC (NDM-1 E. coli XJ141047): > 16 µg/mL
- susceptibility class (MIC) (NDM-1 E. coli XJ141047): R
- MIC [1]: > 16 µg/mL
- susceptibility class (MIC) [1]: R
- MIC (NDM-1 E. coli XJ141015): > 16 µg/mL
- susceptibility class (MIC) (NDM-1 E. coli XJ141015): R
- MIC (K. pneumoniae ATCC13883): ≤ 4 µg/mL
- susceptibility class (MIC) (K. pneumoniae ATCC13883): S
- MIC [2]: > 16 µg/mL
- susceptibility class (MIC) [2]: R
- MIC [3]: > 16 µg/mL
- susceptibility class (MIC) [3]: R
- MIC [4]: > 16 µg/mL
- susceptibility class (MIC) [4]: R
SMILES: Cc1nnc(SCC2=C(C(=O)O)N3C(=O)[C@@H](NC(=O)Cn4cnnn4)[C@H]3SC2)s1 [Cefazolin]
